Measurements from PMC10505172, “Discovery and pharmacophoric characterization of chemokine network inhibitors using phage-display, saturation mutagenesis and computational modelling” (Nature Communications, 2023).
Like-named read-outs stand apart in the source and are kept apart here. Ends that are not written are not given here.

What was measured:
[1] = target: T1, CCL8 (Homo sapiens, UniProt P80075); assay: CCL8-induced THP1 cell migration (chemotaxis); assay type: cell-based; settings: for effect on chemokine-induced cell migration compared with scrambled control HD2SCR: peptides 10 μM, chemokine at EC80, THP1 cells, n = 3 biological replicates, Dunnett's test
T1 construct: purchased Peprotech 300-15
T1 sequence (P80075 24-99): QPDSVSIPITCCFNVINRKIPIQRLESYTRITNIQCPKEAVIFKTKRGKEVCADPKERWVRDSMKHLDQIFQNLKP
Description: (§1) For THP1 migration assays, 300000 cells/well were added to the top chamber of a 5-µm 96-well Transwell insert (3387, Corning) in 50 µL of cell migration media (RPMI-1640 (R0883, Sigma), 0.5% FBS (F9665, Sigma), 4 mM L-Glutamine (G7513, Sigma), 0.05% DMSO (D4540, Sigma)). The bottom chamber contained 150 µL of migration media with chemokine and peptide added. Cells were migrated at 37 °C in 5% CO2 for 4 h.
Following the migration assay the migration plate was shaken at 850 RPM for 10 min, and media from bottom plate transferred to a round-bottomed 96 well plate (353910, Falcon). Cell counts were determined using an Atune NxT Flow Cytometer Plate Reader with Cytkick autosampler (ThermoFisher), based on cell size parameters FSC-H/SSC-H, and a previously defined gate setting for each cell type (Supplementary Fig. 11). All experiments were performed as three technical and three biological replicates. Statistical significances between control and experimental groups was evaluated using Dunnett’s test[73]. IC50 experiments were performed at the EC80 dose of chemokine. EC80 was calculated by fitting a chemokine dose-response curve with a 3-parameter log-logistic model (fixing the top to 100%) using the function “drm” in R-package drc[74]. IC50 was calculated by fitting an inhibitor response curve with a 4-parameter log-logistic model using the function “drm” in R-package drc[74]. All IC50 values reported had p-value < 0.05.

[2] = target: T2, CXCL10 (Homo sapiens, UniProt P02778); assay: CXCL10-induced activated T cell (ATC) migration (chemotaxis); assay type: cell-based
T2 construct: purchased Peprotech 300-12
Description: For activated-T cell migration assays, 100000 cells/well were added to the top chamber of a 3-µm Transwell insert (3385, Corning) in 50 µL of migration media (HBSS (14025-092, Life Technologies), 0.1% protease free bovine serum albumin (A7030, Sigma), 0.05% DMSO (D4540, Sigma)). The bottom chamber contained 150 µL of migration media with chemokine and peptide added. Cells were migrated at 37 °C in 5% CO2 for 2 h.
(§2) Following the migration assay the migration plate was shaken at 850 RPM for 10 min, and media from bottom plate transferred to a round-bottomed 96 well plate (353910, Falcon). Cell counts were determined using an Atune NxT Flow Cytometer Plate Reader with Cytkick autosampler (ThermoFisher), based on cell size parameters FSC-H/SSC-H, and a previously defined gate setting for each cell type (Supplementary Fig. 11). All experiments were performed as three technical and three biological replicates. Statistical significances between control and experimental groups was evaluated using Dunnett’s test[73]. IC50 experiments were performed at the EC80 dose of chemokine. EC80 was calculated by fitting a chemokine dose-response curve with a 3-parameter log-logistic model (fixing the top to 100%) using the function “drm” in R-package drc[74]. IC50 was calculated by fitting an inhibitor response curve with a 4-parameter log-logistic model using the function “drm” in R-package drc[74]. […]

[3] = target: T3, CCL5 (Homo sapiens, UniProt P13501); assay: CCL5-induced THP1 cell migration (chemotaxis); assay type: cell-based
T3 construct: purchased Peprotech 300-06
T3 sequence (P13501 24-91): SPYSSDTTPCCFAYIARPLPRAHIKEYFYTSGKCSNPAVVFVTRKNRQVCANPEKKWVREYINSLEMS
Description: as §1, §2

[4] = target: T4, CCL7 (Homo sapiens, UniProt P80098); assay: CCL7-induced THP1 cell migration (chemotaxis); assay type: cell-based
T4 construct: purchased Peprotech 300-17
T4 sequence (P80098 24-99): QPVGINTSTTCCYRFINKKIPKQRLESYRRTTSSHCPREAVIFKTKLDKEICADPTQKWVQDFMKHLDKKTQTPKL
Description: as §1, §2

[5] = target: T5, CXCL6 (Homo sapiens, UniProt P80162); assay: CXCL6-induced Jurkat CXCR1 (J:CXCR1) migration (chemotaxis); assay type: cell-based
T5 construct: purchased Peprotech 300-41
T5 sequence (P80162 38-114): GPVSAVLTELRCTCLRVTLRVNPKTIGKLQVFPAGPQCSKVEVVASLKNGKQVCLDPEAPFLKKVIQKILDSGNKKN
Description: as §1
J:CXCR1 migration assays were performed exactly as for THP1 assays except that a 3-µm Transwell insert (3385, Corning) was used.
Following the migration assay the migration plate was shaken at 850 RPM for 10 min, and media from bottom plate transferred to a round-bottomed 96 well plate (353910, Falcon). Cell counts were determined using an Atune NxT Flow Cytometer Plate Reader with Cytkick autosampler (ThermoFisher), based on cell size parameters FSC-H/SSC-H, and a previously defined gate setting for each cell type (Supplementary Fig. 11). […] Statistical significances between control and experimental groups was evaluated using Dunnett’s test[73]. […] EC80 was calculated by fitting a chemokine dose-response curve with a 3-parameter log-logistic model (fixing the top to 100%) using the function “drm” in R-package drc[74]. IC50 was calculated by fitting an inhibitor response curve with a 4-parameter log-logistic model using the function “drm” in R-package drc[74]. […]

[6] = test system: CCL5; settings: cited from earlier work
Description: Peptides and peptidomimetics that mimic the activity of parental proteins have been successfully developed from several naturally occurring proteins into viable clinical therapeutics. Exemplars include the peptidomimetics captopril, eptifibatide and tirofiban, which are based on peptides derived from the snake venom toxins bradykinin-potentiating-peptide, barbourin and echistatin respectively. […] Inspired by these exemplars, by usi ...

[7] = test system: 25 biotinylated chemokines; assay: Phage-display library selection with deep sequencing; assay type: binding, human; settings: multivalent p8 phage display, three selection rounds, 25 chemokine baits, enrichment vs input library
Description: Phage display screening was performed using a protocol as described[71] with certain modifications. Experiments were performed in 96-well plates (Greiner Bio-One, 655180). Briefly, biotinylated chemokines (1 μg, Almac or ProteinFoundry, Supplementary Table 1) were immobilised on 5 μl streptavidin-coated magnetic beads (Dynabeads™ M-280 Streptavidin, Invitrogen, 11205D) and incubated overnight at 4 °C. […]
Inserts from the input library and from the final phage population following selection were amplified by PCR using primers: 5′- […] and 5′-[…], (Life Technologies). The PCR products were cleaned up using Monarch® PCR & DNA Cleanup Kit (5 μg) (T1030, NEB), 260/280 ratio determined by Nanodrop, quantified using a Qubit dsDNA Quantitation, High Sensitivity Kit (Q32851, Thermo Scientific) and subsequently sequenced at Azenta/GeneWiz using the AmpliconEZ protocol.
Paired end read Fastq files were joined by the read id. […] Hexadecapeptide enrichment (E) following selection was calculated as ratio of output peptide frequency to input peptide frequency and expressed as log2E. […]

[8] = test system: CCL1; assay: Biolayer interferometry cross-binding screen; set-up: species or system human; settings: 1 μM chemokine, fusion 1 mg/mL immobilised; specific if Rmax exceeded 3 times Rmax of SUMO:HD2SCR; two independent experiments
Description: (§3) The binding of His-SUMO tagged peptide fusions to various chemokines (Supplementary Table 3) was investigated by biolayer interferometry (BLI) using Ni-NTA biosensors (18-5101, ForteBio). All BLI data were obtained at 25 °C using a ForteBio-Sartorius Octet RED 384 instrument and Octet 384-well tilted bottom microplate (18-5080, Sartorius). The biosensors were preincubated overnight at room temperature in BLI buffer (PBS, 500 mM NaCl, 0.01% BSA (A7638, Sigma) + 0.002% Tween (P2287, Sigma)). His-SUMO tagged peptide fusions at 1 mg/mL (for cross-binding screen assay) and at 0.25 mg/mL (for kinetic assays) were immobilised on the Ni-NTA biosensors for 500 s using the BLI buffer. The HIS:SUMO fusion-loaded biosensors were then washed in the BLI buffer to allow signal stabilisation. To study the association with the analyte (chemokines), the biosensors were then dipped in chemokine solutions of various concentrations (1 μM for cross-binding screen assays, a range of 25–750 nM for kinetic assays) made in the BLI buffer, for either 300 s for cross-binding screen assays, or 600 s for kinetic assays. This was followed by the dissociation step, where the biosensors were incubated in BLI buffer for 300 s for screening assays and 600 s for kinetic assays. For chemokine cross-binding screens, wavelength shift was normalised by subtracting the signal from buffer control, and normalising the highest Rmax (i.e., with CCL8 and HD2) obtained in the experiment to 1. Kinetic data was analysed using buffer subtracted wavelength shift and a 1:1 binding model. […]
(§4) independent experiments. Plots display normalised wavelength shift (y axis; nm) versus time (x-axis; seconds). Vertical dotted line indicates the onset of dissociation. Cross-binding experiments (at 1 uM chemokine concentration) were performed with a panel of chemokines (see Supplementary information
(§5) Table 3). […] Chemokine names are indicated. […]
(§6) specific binding in two independent experiments are shown. […]

[9] = test system: CXCL13; assay: Biolayer interferometry cross-binding screen; set-up: species or system human; settings: 1 μM chemokine, fusion 1 mg/mL immobilised; specific if Rmax exceeded 3 times Rmax of SUMO:HD2SCR; two independent experiments
Description: as §3, §4, §5, §6

[10] = test system: CCL11; assay: Biolayer interferometry cross-binding screen; set-up: species or system human; settings: 1 μM chemokine, fusion 1 mg/mL immobilised; specific if Rmax exceeded 3 times Rmax of SUMO:HD2SCR; two independent experiments
Description: as §3, §4, §5, §6

[11] = target: T4, CCL7; assay: Biolayer interferometry cross-binding screen; settings: 1 μM chemokine, fusion 1 mg/mL immobilised; specific if Rmax exceeded 3 times Rmax of SUMO:HD2SCR; two independent experiments
Description: as §3, §4, §5, §6

[12] = target: T3, CCL5; assay: Biolayer interferometry cross-binding screen; settings: 1 μM chemokine, fusion 1 mg/mL immobilised; specific if Rmax exceeded 3 times Rmax of SUMO:HD2SCR; two independent experiments
Description: as §3, §4, §5, §6

[13] = target: T2, CXCL10; assay: Biolayer interferometry cross-binding screen; settings: 1 μM chemokine, fusion 1 mg/mL immobilised; specific if Rmax exceeded 3 times Rmax of SUMO:HD2SCR; two independent experiments
Description: as §3, §4, §5, §6

[14] = target: T1, CCL8; assay: Biolayer interferometry, His-SUMO peptide fusion binding to chemokine
Description: We next evaluated the ability of the exemplar peptide HD2 to bind a panel of chemokines (Supplementary Table 3) using biolayer interferometry (BLI). We generated HD2 and a scrambled control (HD2SCR) as HIS:SUMO fusion proteins in E.coli. This approach results in soluble proteins that can be immobilised on to BLI sensors through the N-terminal HIS tag. […] The binding of HD2 to these chemokines was characterised at different chemokine doses to evaluate binding affinity (KD). […] As chemokines are known to oligomerize in solution and also upon glycosaminoglycan binding, the most parsimonious explanation for this binding profile is chemokine oligomerization at the BLI sensor. […] The most likely explanation is that multivalent phage peptide-display allows identification of lower affinity interactions in comparison to BLI[40].
The binding of His-SUMO tagged peptide fusions to various chemokines (Supplementary Table 3) was investigated by biolayer interferometry (BLI) using Ni-NTA biosensors (18-5101, ForteBio). All BLI data were obtained at 25 °C using a ForteBio-Sartorius Octet RED 384 instrument and Octet 384-well tilted bottom microplate (18-5080, Sartorius). […] Kinetic data was analysed using buffer subtracted wavelength shift and a 1:1 binding model.

DEDYEDFFKPVTCYFA [HD540, hexadecapeptide from evasin EV672_RHIPC]
effect on chemokine-induced cell migration compared with scrambled control HD2SCR [1]: inhibition

EDEDYEDFFKPVTCYF [HD845, hexadecapeptide from evasin EV672_RHIPC, previously described as BK1.5]
effect on chemokine-induced cell migration compared with scrambled control HD2SCR [1]: inhibition

EEDDYTAYAPLTCYFT-NH2 [HD2]
IC50 [2]: 2500 nM | IC50 [3]: 790 nM | IC50 [4]: 5700 nM | IC50 [1]: 19 nM | IC50 [5]: 7100 nM | IC50 ([5]; IC50, median, median of biological replicates (n = 3), Fig. 6k, J:CXCR1 cells, chemokine at EC80): 14000 nM

EEEDDYTAYAPLTAYFTN [Ev4Glu^14-Asn^31]
inhibition of CCL5 function [6]: inhibits CCL5 function

EEEDDYTAYAPLTCYF [HD7, hexadecapeptide from evasin EVA4_RHISA]
number of chemokines bound with log2E > 5 [7]: over 15

sHD2: HD2 generated as HIS:SUMO fusion protein in E.coli for BLI (EEDDYTAYAPLTCYFT; also: HIS:SUMO fusion protein, side not given here)
specific binding in BLI cross-binding screen [8]: specifically and reproducibly bind | specific binding in BLI cross-binding screen [9]: specifically and reproducibly bind | specific binding in BLI cross-binding screen [10]: specifically and reproducibly bind | specific binding in BLI cross-binding screen [11]: specifically and reproducibly bind | specific binding in BLI cross-binding screen [12]: specifically and reproducibly bind | specific binding in BLI cross-binding screen [13]: specifically and reproducibly bind | specific binding in BLI cross-binding screen ([14]; 1 μM chemokine, fusion 1 mg/mL immobilised, specific if Rmax exceeded 3 times Rmax of SUMO:HD2SCR, two independent experiments): specifically and reproducibly bind | Kd ([14]; Expt ID E12, N = 5 dose responses with good fits, BLI kinetic assay, 1:1 binding model, 25 °C): 142 nM
